In patent US11779600B2, “Methods of treating or preventing alzheimer's disease and associated conditions” (CEDARS-SINAI MEDICAL CENTER, priority 2016, dated 2023):

Test system: bone marrow-derived macrophages (MΦ^BM)
Test: Fibrillar Aβ1-42 phagocytosis assay in bone marrow-derived macrophages
Type: cell-based, mouse
Protocol: Lyophilized non-fluoro amyloid-β1-42 peptide (#20276; Anaspec) was initially monomerized by dissolving it in ice-cold HFIP (hexafluoroisopropanol) (#52512; Sigma) to a final concentration of 1 mM and then aliquoted in sterile siliconized microcentrifuge tubes. The HFIP was first evaporated while in the sterile hood and then under vacuum conditions in a SpeedVac for 2 h to remove any trace of HFIP; the peptide film was stored at −20° C. until use. To induce fibril formation, fluoro (HiLyte647; #64161; Anaspec) and non-fluoro amyloid-β1-42 films were resuspended in media to which 10% of sterile NaOH 60 mM was first added and the media were vortexed for 30 s. Then, a sterile 45% H2O and a sterile 45% solution of 20 mM NaH2PO4+Na2HPO4 (pH 7.4) were added, and the media were vortexed again and incubated on a shaker for 2 weeks at 37° C. Pre-formed amyloid-β1-42 fibrils were then sonicated for 60 s and diluted to 100 nM using the same media prior to the phagocytosis assay.
To test amyloid-β phagocytosis by macrophage, in repeated experiments monocytes were isolated from the bone marrow of wild-type mice (n=18 mice) and differentiated into macro-phage by 7-day cultivation in complete RPMI-1640 medium (#21870; Life Technologies) with 10% serum and 20 ng/ml MCSF (#315-02; PeproTech). Bone marrow-derived macrophages (MΦBM) were generated from femurs and tibiae cultured for 6-7 days in complete RPMI 1640 medium (Life Technologies) with 10% FBS, 100 U/ml penicillin, 100 μg/ml streptomycin, 2 mM L-glutamine and 20 ng/ml MCSF (PeproTech). Primary cultures of macrophage were then plated at 1.2×10^5 cells per well (3-4 wells for each condition) in 24-well tissue-culture plates on glass cover-slips overnight. Next, macrophages were either treated with 30 μg/ml GA (Copaxone®; TEVA Neuroscience), Brefeldin A (BFA; Sigma, 1X), or 10 μM Minocycline (Sigma) for the duration of 1, 3, or 24 h, or not treated (control group). Before addition of fibrillar amyloid-β1-42, the cells were chilled in a 4° C. ice bath for 5 min; immediately after addition of the preformed fibrillar amyloid-β1-42 (100 nM), the plates were centrifuged at 515g in 25° C. followed by incubation at 37° C. for 30 or 60 min. The cells were then rinsed with amyloid-β-free medium to remove non-incorporated amyloid-β and later washed twice with PBS. Methanol (99.8%) at −20° C. for 20 min or 4% paraformaldehyde at room temperature for 12 min was used for fixation of the cells followed by repeated washes with PBS. […] The fluorescent signal and its total area were determined and quantified by the conversion of individual images to greyscale and standardizing to baseline using histogram-based thresholds with NIH ImageJ software. […]

Substance: glatiramer acetate [GA]
- increase of Aβ phagocytosis (24 hours treatment, then fAβ1-42 for 30 min, quantitative ICC (FIG. 16E)): 2.5 fold
- increase of fibrillar Aβ1-42 uptake in MΦ^BM (GA pretreated, 100 nM fibrillar Aβ1-42 for 30 min, qICC and ELISA): 2.5-2.85 fold
- rise in fAβ1-42 uptake (GA-treated MΦ (FIG. 5D)): 2.8 fold
